From patent publication US20250289827A1, “MORPHIC FORMS OF A MUTANT BRAF DEGRADER AND METHODS OF MANUFACTURE THEREOF” (C4 THERAPEUTICS, INC., priority 2022, published 2025)
“Also recorded” adds a separate entry of the source.

Assays:
[1] = Crystallization by heat-cool DSC; format: physicochemical; conditions: for Thermal events: Melting Tonset / Thermal events: enthalpy: heated to 185° C.; for Thermal events: Delta Cp / Thermal events: Tg: reheated to 250° C.
From the text: Polymorphic behavior of Compound 1 Form A was investigated by two different heat-cool DSC cycles. A Tzero pan and a Tzero hermetic lid with a pin hole were used for this experiment. No new crystalline form was obtained by heat-cool DSC.

[2] = Salt screening by slurry equilibration; format: physicochemical
Method: About 30 mg of Compound 1 Form A and 0.5 or 1 equivalent of base were added into a solvent in a 2 mL glass vial. […] Obtained mixtures were stirred at 25° C. for at least 48 hours.
Obtained suspensions were filtered through a 0.45 μm nylon membrane filter by centrifugation at 14,000 rpm. After being dried at 25° C. under vacuum for 2 h, solid parts were analyzed by XRPD.

[3] = Stability study for Compound 1 Form A (storage conditions); format: physicochemical
[4] = Bulk stability of Compound 1 Form B (1 week stress); format: physicochemical; conditions: for Bulk (XRPD) crystallinity / Bulk (XRPD) form / Color / Purity, Bulk (HPLC): Solid state
Method: Compound 1 Form B was placed at 25° C./92% RH in an open container, at 40° C./75% RH in an open container and at 60RC in a closed container for 1 week. Samples after the stress were characterized by XRPD and HPLC and inspected for color change.

[5] = Dry grinding simulation experiments; format: physicochemical
Method: About 20 mg of Compound 1 Form B was ground manually with a mortar and a pestle for 1, 2 and 5 min. Potential form change, and degree of crystallinity were evaluated by XRPD.

[6] = Bulk stability of Compound 1 Form B (1 week stress); format: physicochemical
[7] = Solubility in spray drying solvent system; format: physicochemical; conditions: 80:20 dichloromethane:methanol, organic solvent or mixture
From the text: The stability of the SDI was supported by XRPD and HPLC purity and assay data. The secondary drying parameters were established to ensure adequate SDI stability during drying and that the ICH limits for residual dichloromethane and methanol can be met. Through a feasibility batch and an engineering batch, an SDI manufacturing process is established.

[8] = Plasma and brain pharmacokinetics in A375-luciferase intracranial model; parameters: species or system BALB/c nude mice; conditions: mouse, in vivo
Method: To determine the level of CNS and plasma exposure of Compound 1 compared to encorafenib, a separate pharmacokinetics/pharmacodynamics (PK/PD) study was conducted. Mice were inoculated with luciferase tagged A375 cells as stated above. The tumors were left to establish and expand for 14 days before the study. […] Samples from 3 mice per treatment group were collected at 1, 12, 24, and 48 hours. To test the plasma samples, the mice were anesthetized, and blood was collected into a tube with EDTA-K2, centrifuged, transferred to a fresh tube, and stored frozen. Following blood collection, the mice were perfused for fifteen minutes, decapitated, and the brain was collected and frozen. The harvested plasma and brain were processed for pharmacokinetics analysis by LC/MS/MS with a concentration range of 1-1,000 ng/mL and pharmacodynamics analysis by Western Blot. The concentrations of Compound 1 and encorafenib found in the plasma is shown in FIG. 42, and the concentration found in the brain is shown in FIG. 43.

[9] = Cycle 1 (cooling at 20° C./min)
[10] = 25° C. ± 2° C./60% RH ± 5% RH, 3 M
[11] = 25° C. ± 2° C./60% RH ± 5% RH, 6 M
[12] = 40° C. ± 2° C./75% RH ± 5% RH, 3 M
[13] = 40° C. ± 2° C./75% RH ± 5% RH, 6 M
[14] = 25° C./92% RH, open container, 1 week
[15] = 40° C./75% RH, open container, 1 week
[16] = 60° C., tight container, 1 week
[17] = Solid state, photo (visible light, 1.2 million lux-hrs)

CCN(C)S(=O)(=O)Nc1ccc(F)c(Oc2ccc3ncn([C@H]4COC5(CCN(C(=O)CC6(O)CCN(c7cc8c(cc7F)c(N7CCC(=O)NC7=O)nn8C)CC6)CC5)C4)c(=O)c3c2)c1C#N [Compound 1 Form A]
Thermal events: Melting Tonset [1, 9]: Tonset 167.7° C., enthalpy about
Thermal events: enthalpy [1, 9]: ~16 J/g
Thermal events: Delta Cp [1, 9]: Delta Cp 0.3 J(g. ° C.)
Thermal events: Tg [1, 9]: Heated to 250° C.: Tg 149.8° C.,
Thermal events: Melting Tonset ([1]; Cycle 2 (cooling at 2° C./min)): Tonset 167.7° C., enthalpy about
Thermal events: enthalpy ([1]; Cycle 2 (cooling at 2° C./min)): ~17 J/g
Thermal events: Delta Cp ([1]; Cycle 2 (cooling at 2° C./min)): Delta Cp 0.2 J(g. ° C.)
Thermal events: Tg ([1]; Cycle 2 (cooling at 2° C./min)): Heated to 250° C.: Tg 145.9° C.,
Slurry equilibration result (XRPD) ([2]; Ca(OH)2 (0.5 equiv.), Acetone, 5% water): Sticky material
Slurry equilibration result (XRPD) ([2]; Ca(OH)2 (0.5 equiv.), Acetonitrile, 5% water): Sticky material
Slurry equilibration result (XRPD) ([2]; Choline (1 equiv.), Acetone): Sticky material
Slurry equilibration result (XRPD) ([2]; Choline (1 equiv.), Acetonitrile): Sticky material
Slurry equilibration result (XRPD) ([2]; Choline (1 equiv.), Methanol): Clear solution
Slurry equilibration result (XRPD) ([2]; Erbumine (1 equiv.), Methanol): Few solids
Slurry equilibration result (XRPD) ([2]; Free form only, Acetone): Form B
Slurry equilibration result (XRPD) ([2]; Free form only, Acetonitrile): Form B
Slurry equilibration result (XRPD) ([2]; Methylglucamine (1 equiv.), Methanol): Sticky material
Slurry equilibration result (XRPD) ([2]; Mg(OH)2 (0.5 equiv.), Acetone, 5% water): Few solids
Slurry equilibration result (XRPD) ([2]; Mg(OH)2 (0.5 equiv.), Acetonitrile, 5% water): Form B
Slurry equilibration result (XRPD) ([2]; NH3 (1 equiv.), Acetone): Hazy suspension
Slurry equilibration result (XRPD) ([2]; NH3 (1 equiv.), Acetonitrile): Form I*
Slurry equilibration result (XRPD) ([2]; TRIS (1 equiv.), Methanol): Few solids
Appearance ([3]; 5 ± 3° C., 6 M): white solid
Assay by UPLC (% w/w) ([3]; 5 ± 3° C., 6 M): 92.0% w/w
Chiral purity by HPLC (% area) ([3]; 5 ± 3° C., 6 M): 99.2% area
Related Substances by UPLC (% area), Total Impurities ([3]; 5 ± 3° C., 6 M): 2.8% area
Water Content by KF (% w/w) ([3]; 5 ± 3° C., 6 M): 4.7% w/w
XRPD ([3]; 5 ± 3° C., 6 M): Form A
Stability study outcome (appearance, water content, chiral purity, assay, related substance) ([3]; 5 ± 3° C., 25° C./60% RH, 30° C./65% RH, 40° C./75% RH): meet the acceptance criteria
Assay by UPLC (% w/w) [3, 10]: 93.3% w/w
Chiral purity by HPLC (% area) [3, 10]: 99.2% area
Related Substances, UPLC (% area), Total Impurities [3, 10]: 2.6% area
Water Content by KF (% w/w) [3, 10]: 3.6% w/w
XRPD [3, 10]: Form A
Assay by UPLC (% w/w) [3, 11]: 92.9% w/w
Chiral purity by HPLC (% area) [3, 11]: 99.2% area
Related Substances, UPLC (% area), Total Impurities [3, 11]: 2.9% area
Water Content by KF (% w/w) [3, 11]: 4.2% w/w
XRPD [3, 11]: Form A
Appearance ([3]; 30 ± 2° C./65 ± 5% RH, 6 M): white solid
Assay by UPLC (% w/w) ([3]; 30 ± 2° C./65 ± 5% RH, 6 M): 92.4% w/w
Chiral purity by HPLC (% area) ([3]; 30 ± 2° C./65 ± 5% RH, 6 M): 99.2% area
Related Substances, UPLC (% area), Total Impurities ([3]; 30 ± 2° C./65 ± 5% RH, 6 M): 3.0% area
Water Content by KF (% w/w) ([3]; 30 ± 2° C./65 ± 5% RH, 6 M): 3.8% w/w
XRPD ([3]; 30 ± 2° C./65 ± 5% RH, 6 M): Form A
Assay by UPLC (% w/w) [3, 12]: 92.2% w/w
Chiral purity by HPLC (% area) [3, 12]: 99.2% area
Related Substances, UPLC (% area), Total Impurities [3, 12]: 2.7% area
Water Content by KF (% w/w) [3, 12]: 3.9% w/w
XRPD [3, 12]: Form A
Assay by UPLC (% w/w) [3, 13]: 92.5% w/w
Chiral purity by HPLC (% area) [3, 13]: 99.2% area
Related Substances, UPLC (% area), Total Impurities [3, 13]: 3.3% area
Water Content by KF (% w/w) [3, 13]: 4.5% w/w
XRPD [3, 13]: Form A
Appearance ([3]; Initial): white solid
Assay by UPLC (% w/w) ([3]; Initial): 97.3% w/w
Chiral purity by HPLC (% area) ([3]; Initial): 99.2% area
Related Substances by UPLC (% area), Total Impurities ([3]; Initial): 2.6% area
Water Content by KF (% w/w) ([3]; Initial): 0.59% w/w
XRPD ([3]; Initial): Form A
Water content trend ([3]; each stability condition): increased overtime

CCN(C)S(=O)(=O)Nc1ccc(F)c(Oc2ccc3ncn([C@H]4COC5(CCN(C(=O)CC6(O)CCN(c7cc8c(cc7F)c(N7CCC(=O)NC7=O)nn8C)CC6)CC5)C4)c(=O)c3c2)c1C#N [Compound 1 Form B]
Bulk (XRPD) crystallinity [4, 14]: No change in crystallinity
Bulk (XRPD) form [4, 14]: Form B
Color [4, 14]: No change of color
Purity, Bulk (HPLC) [4, 14]: 99.2%
Bulk (XRPD) crystallinity [4, 15]: No change in crystallinity
Bulk (XRPD) form [4, 15]: Form B
Color [4, 15]: No change of color
Purity, Bulk (HPLC) [4, 15]: 99.3%
Bulk (XRPD) crystallinity [4, 16]: No change in crystallinity
Bulk (XRPD) form [4, 16]: Form B
Color [4, 16]: No change of color
Purity, Bulk (HPLC) [4, 16]: 99.3%
Bulk (XRPD) form ([4]; photo (visible light, 1.2 million lux-hrs)): Form B
Bulk stability (purity, crystal form, crystallinity) ([4]; one week, 25° C./92% RH open, 40° C./75% RH open, 60° C. tight container): excellent chemical and physical stability without any changes in purity, crystal form and crystallinity; also recorded: excellent chemical and physical stability without any changes in purity, crystal form and/or crystallinity
Morphic form stability under dry grinding [5]: excellent morphic form stability
Comments ([5]; grinding time 1 min): Slight decrease in crystallinity.
XRPD ([5]; grinding time 1 min): Form B
Comments ([5]; grinding time 2 min): Slight decrease in crystallinity.
XRPD ([5]; grinding time 2 min): Form B
Comments ([5]; grinding time 5 min): Slight decrease in crystallinity.
XRPD ([5]; grinding time 5 min): Form B
Bulk (XRPD) crystallinity [6, 17]: Slight decrease in crystallinity
Color [6, 17]: No change of color
Purity, Bulk (HPLC) [6, 17]: 96.9%
Purity, Control (HPLC) ([6]; photo test, control sample): 99.4%

CCN(C)S(=O)(=O)Nc1ccc(F)c(Oc2ccc3ncn([C@H]4COC5(CCN(C(=O)CC6(O)CCN(c7cc8c(cc7F)c(N7CCC(=O)NC7=O)nn8C)CC6)CC5)C4)c(=O)c3c2)c1C#N [Compound 1, (3R)-3-[6-[2-cyano-3-[[ethyl(methyl)sulfamoyl]amino]-6-fluorophenoxy]-4-oxoquinazolin-3-yl]-8-[2-[1-[3-(2,4-dioxo-1,3-diazinan-1-yl)-5-fluoro-1-methylindazol-6-yl]-4-hydroxypiperidin-4-yl]acetyl]-1-oxa-8-azaspiro[4.5]decane]
solubility [7]: > 100 mg/mL
Blood brain barrier penetration [8]: high level of blood brain barrier penetration
